Active and inactive are the calls of the source. The rule behind the calls is not given here.
Columns and labels:
[1] = tested on: Vaccinia virus WR; test: Antiviral activity against Vaccinia virus WR ATCC VR-1354 infected through intraperitoneal route in BALB/c mouse assessed as reduction of viral load in lung at 100 mg/kg, po qd measured after 3 days postinfection by RT-PCR analysis relative to control; format: functional, organism-based; set-up: dose 100 mg/kg
[2] = tested on: Vaccinia virus WR; test: Antiviral activity against Vaccinia virus WR ATCC VR-1354 infected through intraperitoneal route in BALB/c mouse assessed as reduction of viral load in liver at 100 mg/kg, po qd measured after 3 days postinfection by RT-PCR analysis relative to control; format: functional, organism-based; set-up: dose 100 mg/kg
[3] = tested on: Vaccinia virus WR; test: Antiviral activity against Vaccinia virus WR ATCC VR-1354 infected through intraperitoneal route in BALB/c mouse assessed as reduction of viral load in spleen at 100 mg/kg, po qd measured after 5 days postinfection by RT-PCR analysis relative to control; format: functional, organism-based; set-up: dose 100 mg/kg
[4] = tested on: Vaccinia virus WR; test: Antiviral activity against Vaccinia virus WR ATCC VR-1354 in african green monkey BSC-40 cells infected with 7 day postinfection BAL fluid from 100 mg/kg, po qd compound treated BALB/c mouse infected through percutaneous route assessed as reduction of viral attachment to cells by plaque titration assay; format: functional
[5] = tested on: Vaccinia virus WR; test: Antiviral activity against Vaccinia virus WR ATCC VR-1354 infected through dermal scarification route in ACAM2000 vaccinated BALB/c mouse assessed as reduction of swab virus titers at 100 mg/kg, po qd measured after 5 days postinfection by RT-PCR analysis relative to control; format: functional
[6] = tested on: Vaccinia virus WR; test: Antiviral activity against Vaccinia virus WR ATCC VR-1354 infected through dermal scarification route in ACAM2000 vaccinated BALB/c mouse assessed as reduction of swab virus titers at 100 mg/kg, po qd measured after 14 days postinfection by RT-PCR analysis relative to control; format: functional
[7] = tested on: Vaccinia virus WR; test: Antiviral activity against Vaccinia virus WR ATCC VR-1354 infected through dermal scarification route in ACAM2000 vaccinated BALB/c mouse assessed as reduction of swab virus titers at 100 mg/kg, po qd measured after 21 days postinfection by RT-PCR analysis relative to control; format: functional
[8] = tested on: Vaccinia virus WR; test: Antiviral activity against Vaccinia virus WR ATCC VR-1354 infected through percutaneous route in BALB/c mouse assessed as inhibition of virus dissemination in spleen at 100 mg/kg, po qd for 3 days by RT-PCR analysis relative to control; format: functional
[9] = tested on: Vaccinia virus WR; test: Antiviral activity against Vaccinia virus WR ATCC VR-1354 infected through percutaneous route in BALB/c mouse assessed as reduction of viral load in spleen at 100 mg/kg, po qd for 1 day by RT-PCR analysis relative to control; format: functional
[10] = tested on: Vaccinia virus WR; test: Antiviral activity against Vaccinia virus WR ATCC VR-1354 infected through percutaneous route in BALB/c mouse assessed as inhibition of virus dissemination in blood at 100 mg/kg, po qd for 1 day by RT-PCR analysis; format: functional, organism-based; set-up: dose 100 mg/kg
[11] = tested on: Vaccinia virus WR; test: Antiviral activity against Vaccinia virus WR ATCC VR-1354 infected through percutaneous route in BALB/c mouse assessed as inhibition of virus dissemination in brain at 100 mg/kg, po qd for 1 day by RT-PCR analysis; format: functional, organism-based; set-up: dose 100 mg/kg
[12] = tested on: Vaccinia virus WR; test: Antiviral activity against Vaccinia virus WR ATCC VR-1354 infected through subcutaneous route in BALB/c mouse assessed as protection against virus-induced systemic disease symptoms at 100 mg/kg, po qd measured after 9 days postinfection; format: functional, organism-based; set-up: dose 100 mg/kg
[13] = tested on: Vaccinia virus WR; test: Antiviral activity against Vaccinia virus WR ATCC VR-1354 infected through percutaneous route in BALB/c mouse assessed as inhibition of virus dissemination in brain at 100 mg/kg, po qd for 3 to 14 days by RT-PCR analysis; format: functional, organism-based; set-up: dose 100 mg/kg
[14] = tested on: Vaccinia virus WR; test: Antiviral activity against Vaccinia virus WR ATCC VR-1354 infected through percutaneous route in BALB/c mouse assessed as protection against virus-induced death at 100 mg/kg, po qd administered 4 days after postinfection measured on day 6; format: functional, organism-based; set-up: dose 100 mg/kg
[15] = tested on: Vaccinia virus WR; test: Antiviral activity against Vaccinia virus WR ATCC VR-1354 infected through dermal scarification route in BALB/c mouse assessed as protection against virus-induced conjunctivitis in mouse eyes at 100 mg/kg, po qd measured after 6 days postinfection; format: functional, organism-based; set-up: dose 100 mg/kg
[16] = tested on: Vaccinia virus WR; test: Antiviral activity against Vaccinia virus WR ATCC VR-1354 infected through subcutaneous route in BALB/c mouse assessed as protection against virus-induced satellite lesion formation on tails at 100 mg/kg, po qd measured after 6 days postinfection; format: functional, organism-based; set-up: dose 100 mg/kg
[17] = tested on: Vaccinia virus WR; test: Antiviral activity against Vaccinia virus WR ATCC VR-1354 infected through intraperitoneal route in BALB/c mouse assessed as protection against virus-induced conjunctivitis in mouse eyes at 100 mg/kg, po qd measured after 6 days postinfection; format: functional, organism-based; set-up: dose 100 mg/kg
[18] = tested on: Vaccinia virus WR; test: Antiviral activity against Vaccinia virus WR ATCC VR-1354 infected through percutaneous route in BALB/c mouse assessed as reduction of viral load in spleen at 100 mg/kg, po qd measured after 3 days postinfection by RT-PCR analysis relative to control; format: functional
[19] = tested on: Vaccinia virus WR; test: Antiviral activity against Vaccinia virus WR ATCC VR-1354 infected through percutaneous route in BALB/c mouse assessed as reduction of viral load in liver at 100 mg/kg, po qd measured after 3 days postinfection by RT-PCR analysis relative to control; format: functional
[20] = tested on: Vaccinia virus WR; test: Antiviral activity against Vaccinia virus WR ATCC VR-1354 infected through percutaneous route in BALB/c mouse assessed as reduction of viral load in brain at 100 mg/kg, po qd measured after 7 days postinfection by RT-PCR analysis relative to control; format: functional, organism-based; set-up: dose 100 mg/kg
[21] = tested on: Vaccinia virus WR; test: Antiviral activity against Vaccinia virus WR ATCC VR-1354 infected through percutaneous route in BALB/c mouse assessed as reduction of viral load in spleen at 100 mg/kg, po qd measured after 13 days postinfection by RT-PCR analysis relative to control; format: functional, organism-based; set-up: dose 100 mg/kg
[22] = tested on: Vaccinia virus WR; test: Antiviral activity against Vaccinia virus WR ATCC VR-1354 infected through percutaneous route in BALB/c mouse assessed as reduction of viral load in liver at 100 mg/kg, po qd measured after 13 days postinfection by RT-PCR analysis relative to control; format: functional, organism-based; set-up: dose 100 mg/kg
[23] = tested on: Vaccinia virus WR; test: Antiviral activity against Vaccinia virus WR ATCC VR-1354 infected through dermal scarification route in BALB/c mouse assessed as reduction of viral load in blood at 100 mg/kg, po qd measured after 5 days postinfection by RT-PCR analysis relative to control; format: functional
[24] = tested on: Vaccinia virus WR; test: Antiviral activity against Vaccinia virus WR ATCC VR-1354 infected through dermal scarification route in BALB/c mouse assessed as reduction of viral load in lung at 100 mg/kg, po qd measured after 14 days postinfection by RT-PCR analysis relative to control; format: functional, organism-based; set-up: dose 100 mg/kg
[25] = tested on: Vaccinia virus WR; test: Antiviral activity against Vaccinia virus WR ATCC VR-1354 infected through dermal scarification route in BALB/c mouse assessed as reduction of viral load in liver at 100 mg/kg, po qd measured after 14 days postinfection by RT-PCR analysis relative to control; format: functional, organism-based; set-up: dose 100 mg/kg

## O=C(NN1C(=O)[C@@H]2[C@@H]3C=C[C@@H]([C@H]4C[C@@H]34)[C@@H]2C1=O)c1ccc(C(F)(F)F)cc1 [TECOVIRIMAT]
[1]
  Activity: inactive
[2]
  Activity: inactive
[3]
  Activity: Active
[4]
  fold change (FC): 528
[5]
  fold change (FC): 71
[6]
  fold change (FC): 25
[7]
  fold change (FC): 3900
[8]
  fold change (FC): 85
[9]
  fold change (FC): 18
[10]
  Activity: inactive
[11]
  Activity: inactive
[12]
  Activity: Active
[13]
  Activity: Active
[14]
  Activity: inactive
[15]
  Activity: Active
[16]
  Activity: Active
[17]
  Activity: Active
[18]
  fold change (FC): 300
[19]
  fold change (FC): 45
[20]
  Activity: Active
[21]
  Activity: Active
[22]
  Activity: Active
[23]
  fold change (FC): 260
[24]
  Activity: Active
[25]
  Activity: Active
